Like-named read-outs stand apart in the source and are kept apart here.
How the values were obtained:
[1] = system: T47D; assay: cell growth inhibition SRB, T47D; type: cell-based; settings: Homo sapiens, N = 3, Table 14
Excerpt: (§1) Cell growth inhibition studies. […] Cells were stained with sulphorhodamine B (SRB) solution.

[2] = pharmacokinetic study in Sprague-Dawley rats; settings: rat
[3] = system: LNCaP; assay: SRB antiproliferation assay, LNCaP prostate cancer; settings: read-out: Cytotoxicity IC50 mean ± SD, LNCaP; 96 h treatment, N = 3
[4] = system: colchicine-binding site on tubulin; assay: competitive mass binding assay, colchicine-tubulin binding; settings: tubulin 1 mg/mL
[5] = system: PC3; assay: cell growth inhibition SRB, PC3 (vascular study); type: cell-based; settings: Homo sapiens, PC-3, N = 3, Table 14
Excerpt: as §1

[6] = system: PC-3; assay: SRB antiproliferation assay, PC-3 prostate cancer; settings: human, PC-3 cells, 96 h
[7] = system: PC-3/TxR; assay: apoptosis, cytoplasmic DNA-histone complexes, PC-3/TxR; type: cell-based, human; settings: 0.8 to 600 nmol/L, 24 h
[8] = system: prostate cancer cells (LNCaP, PC-3, DU-145, PPC-1); assay: SRB assay, prostate cancer cells; type: cell-based, human; settings: Homo sapiens, range over prostate cancer cell lines; read-out: IC50 values against prostate cancer cells
[9] = system: PC-3; assay: apoptosis, cytoplasmic DNA-histone complexes, PC-3; type: cell-based, human; settings: 0.8 to 600 nmol/L, 24 h
[10] = system: PC-3/TxR tumors; settings: for Tumor size End: mouse, in vivo, po
[11] = system: confluent HUVEC monolayers; assay: endothelial monolayer permeability assay; type: cell-based, human; settings: leakage of FITC-dextran (MW 40,000) after 1, 2 and 4 h
Excerpt: Endothelial monolayer permeability assay.

[12] = system: HUVEC; assay: endothelial cell growth inhibition SRB, HUVEC; type: cell-based, human; settings: Homo sapiens, HUVEC; SRB, N = 3, growth factor-supplemented endothelial cells
[13] = system: PPC-1; assay: SRB antiproliferation assay, PPC-1 prostate cancer; settings: read-out: Cytotoxicity IC50 mean ± SD, PPC-1; 96 h treatment, N = 3
[14] = target: T1, Porcine brain tubulin (Sus scrofa, UniProt P02550+P02554); type: biochemical; settings: 5 μM, at 15 min
T1 construct: […]; purchased Cytoskeleton, Denver, Colo; host or cells: porcine brain

[15] = pharmacokinetic study in beagle dogs; settings: dog, PO 5 mg/kg vs IV 2 mg/kg
[16] = system: DU 145; assay: SRB antiproliferation assay, DU 145 prostate cancer; settings: read-out: Cytotoxicity IC50 mean ± SD, Du-145; 96 h treatment, N = 3
[17] = system: CaCO-2; assay: permeability, CaCO-2 assay; settings: mean of duplicate studies
[18] = pharmacokinetic study in ICR mice; settings: mouse, PO 20 mg/kg vs IV 10 mg/kg

Work on `COc1cc(C(=O)c2csc(Nc3ccc4[nH]ccc4c3)n2)cc(OC)c1OC` [compound 55, (2-(1H-indol-5-ylamino)thiazol-4-yl)(3,4,5-trimethoxyphenyl)methanone] yielded an IC50 [1] of 37.4 nM, an AUC ([2]; IV 5 mg/kg) of 509 ± 73 µg·min/mL and a Vss ([2]; IV 5 mg/kg) of 1.0 ± 0.1 L/kg. For the same compound, the AUC ([2]; PO 10 mg/kg) was 246 ± 163 µg·min/mL, the F ([2]; PO 10 mg/kg vs IV 5 mg/kg) was 24% and the IC50 [3] was 27 ± 0.6 nM. For the same compound, the “competition with colchicine for tubulin binding” value [4] was “competed effectively with colchicine for tubulin binding”, the IC50 [5] was 23.3 nM and the IC50 [6] was 16.5 ± 1.5 nM. For the same compound, the “induction of cell apoptosis in PC-3/TxR” value [7] was “equally potent”, the IC50 [8] was 7.5 to 24.1 nM and the “induction of cell apoptosis in PC-3” value [9] was “equally potent”. The “Body weight End” value ([10]; PC-3/TxR xenograft, PO 10 mpk b.i.d × 5/w, day 26, start 29 ± 2) was 26 ± 3 g, the TGI ([10]; PC-3/TxR xenograft, PO 30 mpk b.i.d × 5/w, day 26, 30 mg/kg) was > 100% and the “Body weight End” value ([10]; PC-3/TxR xenograft, PO 30 mpk b.i.d × 5/w, day 26, start 29 ± 3) was 30 ± 2 g. The “Tumor size End” value ([10]; 10 mg/kg) was 1152 ± 433 mm^3, the “Tumor size End” value ([10]; 30 mg/kg) was 101 ± 19 mm^3 and the “permeability of endothelial cell monolayer” value [11] was “increased permeability”. The IC50 [12] was 9.7 nM, the IC50 [13] was 36 ± 0.4 nM and the “inhibition of tubulin polymerization” value [14] was 40%. The F [15] was 36%, the IC50 [16] was 38 ± 0.6 nM and the “Permeability Papp(A→B) in CaCO-2 assay” value [17] was 99 10^−6 cm/s. For the same compound, the F [18] was 34%.

From patent US10865196B2, “Compounds for treatment of cancer” (University of Tennessee Research Foundation, priority 2008, dated 2020)
